Key:
[1] = biological target: xanthine oxidase/ superoxide O2- scavenging (Bos taurus, UniProt P80457); experiment: xanthine oxidase/ superoxide O2- scavenging; details: read-out: Inhibition xanthine oxidase/ superoxide O2- scavenging
Abl kinase (h) = Abl kinase (h) (Homo sapiens, UniProt P00519); experiment: Abl kinase (h); details: read-out: Inhibition Abl kinase (h)
A3 (h) = biological target: T1, A3 (h) (Homo sapiens, UniProt P0DMS8); experiment: A3 (h) (agonist radioligand); details: read-out: Inhibition A3 (h) (agonist radioligand)
T1 sequence (P0DMS8 1-318): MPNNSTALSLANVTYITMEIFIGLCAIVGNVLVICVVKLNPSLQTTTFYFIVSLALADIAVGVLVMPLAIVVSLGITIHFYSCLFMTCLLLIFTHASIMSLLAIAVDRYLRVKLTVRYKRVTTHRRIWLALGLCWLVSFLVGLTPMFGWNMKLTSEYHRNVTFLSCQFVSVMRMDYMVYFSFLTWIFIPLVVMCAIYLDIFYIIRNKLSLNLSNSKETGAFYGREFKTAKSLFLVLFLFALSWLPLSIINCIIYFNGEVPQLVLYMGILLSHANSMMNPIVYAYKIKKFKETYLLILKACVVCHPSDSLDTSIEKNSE

[2] = biological target: T2, MAO-A (h) monoamine oxydase A (Homo sapiens, UniProt P21397); experiment: MAO-A (h) monoamine oxydase A, enzymatic assay; details: read-out: Inhibition MAO-A (h) monoamine oxydase A, enzymatic assay
T2 sequence (P21397 1-527): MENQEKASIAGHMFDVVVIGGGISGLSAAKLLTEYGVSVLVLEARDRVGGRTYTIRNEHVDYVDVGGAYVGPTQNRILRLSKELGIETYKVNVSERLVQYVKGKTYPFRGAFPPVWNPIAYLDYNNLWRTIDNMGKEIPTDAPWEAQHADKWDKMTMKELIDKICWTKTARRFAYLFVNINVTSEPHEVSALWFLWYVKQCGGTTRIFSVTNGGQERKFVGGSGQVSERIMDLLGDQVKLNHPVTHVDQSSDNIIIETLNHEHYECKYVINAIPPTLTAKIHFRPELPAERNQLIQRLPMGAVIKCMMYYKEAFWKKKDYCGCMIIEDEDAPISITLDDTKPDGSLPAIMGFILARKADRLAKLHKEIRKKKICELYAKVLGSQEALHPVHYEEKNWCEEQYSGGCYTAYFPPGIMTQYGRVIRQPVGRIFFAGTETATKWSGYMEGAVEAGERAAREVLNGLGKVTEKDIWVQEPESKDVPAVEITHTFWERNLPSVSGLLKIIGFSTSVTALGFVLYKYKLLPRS

MAGL = biological target: T3, MAGL (Homo sapiens, UniProt Q99685); experiment: Surface plasmon resonance on human MAGL; type: binding; details: SPR
T3 sequence (Q99685 1-303): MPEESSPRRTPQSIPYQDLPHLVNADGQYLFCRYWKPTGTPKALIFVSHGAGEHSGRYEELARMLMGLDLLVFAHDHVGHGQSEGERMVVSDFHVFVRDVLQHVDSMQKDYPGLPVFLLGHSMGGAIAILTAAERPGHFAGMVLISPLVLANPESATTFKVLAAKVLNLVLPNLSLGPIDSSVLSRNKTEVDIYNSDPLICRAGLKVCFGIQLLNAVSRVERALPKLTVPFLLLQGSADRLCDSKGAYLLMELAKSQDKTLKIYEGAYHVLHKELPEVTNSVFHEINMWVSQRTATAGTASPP
Method: High throughput kinetic solubility measurement was performed as previously described in the […]
Surface plasmon resonance
EDC/NHS coupling with a final protein concentration of 0.06 mg/mL: 10 mM acetate pH 5.5 + 10µM RO7224999-000-001(reference binder). No quenching was applied after immobilization, but the surface was left with a running buffer for 1 h to hydrolyze and stabilize.
Running buffer: […], 150 mM NaCl, 0.05% P20, pH 7.4 + 50 µM EDTA, 1% DMSO Instrument:
Biacore T200 Sensorchip: CM5 Temperature: 18 °C concentration series: 5 concentration 3-fold dilution, top conc 0.5 µM, contact time 180s, dissociation time 300s before each compound a blank injection for double referencing was measured. Each compound was followed by 9 injections of Control, RO7283571 (60 s contact time, 200 s dissociation time, 10 µM) to validate surface activity and recovery to determine off rates.
Dissociation was trimmed for compounds showing faster kinetics to suppress the over-fitting of baseline drift. Data was fitted with 1:1 model with an added drift parameter to improve fit quality and to compensate from insufficient drift correction with the double referencing. Off rates (koff) were determined by recovery of reference binding. The signal was first blank subtracted, and the corrected chaser response was plotted versus time and fitted to an exponential decay model. […]

Sequence of xanthine oxidase/ superoxide O2- scavenging (P80457 whole entry): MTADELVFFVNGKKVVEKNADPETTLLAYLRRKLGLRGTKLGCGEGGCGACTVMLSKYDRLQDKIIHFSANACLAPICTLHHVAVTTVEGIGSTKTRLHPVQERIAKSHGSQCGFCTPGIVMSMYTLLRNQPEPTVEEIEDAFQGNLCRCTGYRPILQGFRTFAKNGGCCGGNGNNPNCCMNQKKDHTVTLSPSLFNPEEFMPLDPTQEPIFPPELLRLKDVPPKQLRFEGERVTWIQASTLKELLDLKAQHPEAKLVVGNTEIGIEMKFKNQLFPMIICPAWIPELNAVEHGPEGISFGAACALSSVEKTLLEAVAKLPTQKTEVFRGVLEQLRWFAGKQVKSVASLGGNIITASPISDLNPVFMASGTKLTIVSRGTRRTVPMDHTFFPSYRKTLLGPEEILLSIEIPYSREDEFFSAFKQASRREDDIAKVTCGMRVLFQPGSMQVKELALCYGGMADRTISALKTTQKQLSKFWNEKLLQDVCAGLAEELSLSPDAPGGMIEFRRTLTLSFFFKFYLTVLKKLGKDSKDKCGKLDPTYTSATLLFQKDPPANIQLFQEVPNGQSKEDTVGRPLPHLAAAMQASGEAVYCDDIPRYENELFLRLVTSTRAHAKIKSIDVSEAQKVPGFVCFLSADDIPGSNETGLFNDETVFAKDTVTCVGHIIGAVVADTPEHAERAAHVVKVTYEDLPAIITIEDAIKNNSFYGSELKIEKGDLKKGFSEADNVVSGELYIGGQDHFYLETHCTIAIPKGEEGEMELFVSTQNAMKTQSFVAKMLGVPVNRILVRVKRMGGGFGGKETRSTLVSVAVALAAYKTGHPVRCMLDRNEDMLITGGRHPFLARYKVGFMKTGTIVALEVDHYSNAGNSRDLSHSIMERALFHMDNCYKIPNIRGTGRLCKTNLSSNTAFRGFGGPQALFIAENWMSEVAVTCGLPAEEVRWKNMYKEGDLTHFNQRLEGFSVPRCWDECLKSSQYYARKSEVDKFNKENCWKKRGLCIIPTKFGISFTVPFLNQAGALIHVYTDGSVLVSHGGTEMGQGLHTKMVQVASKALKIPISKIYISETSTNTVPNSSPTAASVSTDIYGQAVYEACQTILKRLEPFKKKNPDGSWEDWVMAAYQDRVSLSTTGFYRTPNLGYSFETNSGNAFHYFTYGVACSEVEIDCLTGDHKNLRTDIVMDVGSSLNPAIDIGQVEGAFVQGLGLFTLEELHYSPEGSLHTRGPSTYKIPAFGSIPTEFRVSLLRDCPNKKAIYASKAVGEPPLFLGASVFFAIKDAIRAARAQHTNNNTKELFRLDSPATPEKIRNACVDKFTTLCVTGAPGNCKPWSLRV
Sequence of Abl kinase (h) (P00519 whole entry): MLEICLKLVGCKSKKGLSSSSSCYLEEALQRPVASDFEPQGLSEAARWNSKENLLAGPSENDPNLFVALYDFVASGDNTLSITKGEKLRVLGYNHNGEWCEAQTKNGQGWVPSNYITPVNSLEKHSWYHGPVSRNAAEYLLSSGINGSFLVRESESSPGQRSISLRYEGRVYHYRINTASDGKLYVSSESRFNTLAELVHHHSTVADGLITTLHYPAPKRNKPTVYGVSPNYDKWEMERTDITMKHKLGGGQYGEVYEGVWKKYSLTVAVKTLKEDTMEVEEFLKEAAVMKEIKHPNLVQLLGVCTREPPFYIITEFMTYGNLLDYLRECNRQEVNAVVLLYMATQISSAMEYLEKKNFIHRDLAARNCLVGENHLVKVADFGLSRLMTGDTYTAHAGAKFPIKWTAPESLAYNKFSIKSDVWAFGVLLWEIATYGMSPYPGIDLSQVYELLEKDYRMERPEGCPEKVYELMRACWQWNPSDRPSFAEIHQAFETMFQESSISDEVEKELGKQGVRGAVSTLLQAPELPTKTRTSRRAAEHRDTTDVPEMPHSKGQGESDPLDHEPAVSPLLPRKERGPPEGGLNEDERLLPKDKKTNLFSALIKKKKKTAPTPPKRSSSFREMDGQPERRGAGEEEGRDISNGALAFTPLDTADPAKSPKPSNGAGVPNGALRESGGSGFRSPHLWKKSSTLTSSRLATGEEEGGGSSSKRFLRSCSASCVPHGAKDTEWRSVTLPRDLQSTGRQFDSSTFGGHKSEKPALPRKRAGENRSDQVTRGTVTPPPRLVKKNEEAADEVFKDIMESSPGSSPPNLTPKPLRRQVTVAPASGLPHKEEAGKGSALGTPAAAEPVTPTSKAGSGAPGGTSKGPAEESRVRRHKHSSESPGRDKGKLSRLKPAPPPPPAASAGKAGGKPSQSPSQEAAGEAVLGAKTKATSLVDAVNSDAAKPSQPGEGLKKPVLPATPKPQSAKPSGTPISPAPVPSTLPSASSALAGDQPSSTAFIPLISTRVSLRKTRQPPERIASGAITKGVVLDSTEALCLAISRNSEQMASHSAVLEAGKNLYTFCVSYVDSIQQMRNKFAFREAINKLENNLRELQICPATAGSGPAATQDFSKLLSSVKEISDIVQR

With `O=C(O[C@H](CO)C(F)(F)F)N1CC2(CC(CC3=C4C=CC=[N+]4[B-](F)(F)n4cccc43)C2)C1` [Compound 1] the inhibition at 10 µM [1] was -29.7%, the inhibition at 10 µM (Abl kinase (h)) was -1.9% and the inhibition at 10 µM (A3 (h)) was -1.6%. It also gave an inhibition at 10 µM [2] of 22.6%.

`O=C(OC(C(F)(F)F)C(F)(F)F)N1CC2(CC(CC3=C4C=CC=[N+]4[B-](F)(F)n4cccc43)C2)C1` [Compound 2] showed an inhibition at 10 µM [1] of 1.8%, an inhibition at 10 µM (Abl kinase (h)) of -10.5% and an inhibition at 10 µM (A3 (h)) of 45%. It also gave an inhibition at 10 µM [2] of -1.3%.

`O=C(OC(C(F)(F)F)C(F)(F)F)N1CC2(CC(CC3=C4C=CC(c5ccc[nH]5)=[N+]4[B-](F)(F)n4cccc43)C2)C1` [Compound 2a] was tested, and the inhibition at 10 µM [1] was 7.8%, the inhibition at 10 µM (Abl kinase (h)) was -2.9% and the inhibition at 10 µM (A3 (h)) was 34.8%. The inhibition at 10 µM [2] was -3%.

Compound `O=C1CO[C@H]2CCN(C(=O)N3CC4(CC(CC5=C6C=CC=[N+]6[B-](F)(F)n6cccc65)C4)C3)C[C@H]2N1` [Compound 4] has a residence time (MAGL) of 37 min.

Work on `O=C1CO[C@H]2CCN(C(=O)N3CC4(CC(CC5=C6C=CC(c7ccc[nH]7)=[N+]6[B-](F)(F)n6cccc65)C4)C3)C[C@H]2N1` [Compound 4a] yielded an inhibition at 10 µM [1] of 24.1%, an inhibition at 10 µM (Abl kinase (h)) of -53.1% and an inhibition at 10 µM [2] of 4.3%.

`O=C(N1CC2(CC(CC3=C4C=CC=[N+]4[B-](F)(F)n4cccc43)C2)C1)N1CC2(CC(n3cnc(C4CC4)n3)C2)C1` [Compound 5] gave a residence time (MAGL) of 44 min, an inhibition at 10 µM [1] of -16.6% and an inhibition at 10 µM (Abl kinase (h)) of 25.6%. The inhibition at 10 µM (A3 (h)) was 17.7% and the inhibition at 10 µM [2] was 4.4%.
